Measured values reported in paper PMC5705205 (Bioorganic & medicinal chemistry letters, 2017).

Columns and labels:
aromatase = target: T1, aromatase (Homo sapiens, UniProt P11511); experiment: Aromatase inhibition assay; assay type: biochemical
T1 sequence (P11511 1-503): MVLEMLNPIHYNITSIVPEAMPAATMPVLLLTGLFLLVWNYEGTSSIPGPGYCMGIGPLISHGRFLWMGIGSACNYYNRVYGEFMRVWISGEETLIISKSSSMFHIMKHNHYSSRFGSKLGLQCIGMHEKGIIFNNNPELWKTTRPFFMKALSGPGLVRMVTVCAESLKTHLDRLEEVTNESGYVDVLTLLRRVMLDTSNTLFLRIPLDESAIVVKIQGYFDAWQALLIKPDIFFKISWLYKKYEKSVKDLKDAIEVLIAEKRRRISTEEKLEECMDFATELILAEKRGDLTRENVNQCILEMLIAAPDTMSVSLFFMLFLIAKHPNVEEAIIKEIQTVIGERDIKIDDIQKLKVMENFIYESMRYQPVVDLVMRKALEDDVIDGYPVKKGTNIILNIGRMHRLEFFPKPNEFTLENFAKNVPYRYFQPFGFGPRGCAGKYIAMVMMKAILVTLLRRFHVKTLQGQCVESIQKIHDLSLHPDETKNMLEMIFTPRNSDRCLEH

[1] = tested on: quinone reductase 1 (QR1); experiment: QR1 induction assay; assay type: cell-based; settings: for fold induction at 50 µM: read-out: QR1 IR (induction ratio), induction ratio at a concentration of 50 μM

| Anti-aromatase activity (in words) (aromatase) | Compound | QR1 induction activity (in words) [1] | further results |
| --- | --- | --- | --- |
| only slight activity | c1ccc(-c2cc3ccccc3[nH]2)cc1 [Compound 1, 2-phenylindole] | very good QR1 induction activity |  |
|  | Clc1ccccc1-c1cc2ccccc2[nH]1 [Compound 9] |  | fold induction at 50 µM [1]: < 1.5 |
|  | Clc1ccc(-c2cc3ccccc3[nH]2)cc1Cl [Compound 8] | inactive |  |
|  | COc1cc(OC)cc(-c2cc3ccccc3[nH]2)c1 [Compound 7] |  | Fold increase in QR1 induction activity over 1 ([1]; relative to 1): 2 fold |
|  | CN(C)c1ccc(-c2cc3ccccc3[nH]2)cc1 [Compound 20] | inactive |  |
| totally destroyed aromatase activity | O=[N+]([O-])c1ccc2[nH]c(-c3ccc(Cl)c(Cl)c3)cc2c1 [Compound 31] |  |  |
| not active | Cn1c(-c2ccc(Cl)c(Cl)c2)cc2cc([N+](=O)[O-])ccc21 [Compound 31a] |  |  |
|  | Cn1c(-c2ccccc2)cc2cc([N+](=O)[O-])ccc21 [Compound 24a] |  | Fold increase in aromatase activity over free NH derivative 24 (aromatase; relative to 24): 2 fold |
|  | N#Cc1c(-c2ccccc2)[nH]c2ccccc12 [Compound 2d, 3-cyano-2-phenylindole] |  | IC50 (aromatase): 1610 ± 200 nM; inhibition at 50 µM (aromatase; read-out: Aromatase % inhibition): 88 ± 1.07%; fold induction at 50 µM [1]: 0.55 ± 0.64 |
|  | Fc1cc(F)cc(-c2cc3ccccc3[nH]2)c1 [Compound 15] | inactive |  |
|  | c1cncc(-c2cc3ccccc3[nH]2)c1 [Compound 21] | inactive |  |
|  | Nc1ccc(-c2cc3ccccc3[nH]2)cc1 [Compound 18] | inactive |  |
|  | O=c1cc(-c2ccc(Br)cc2)oc2ccccc12 [4′-bromoflavone, reference compound] |  | EC (2-fold activity) ([1]; read-out: QR1 CD (concentration that double the activity)): 0.01 µM |
| did not show encouraging activity | COc1ccc2ccc(-c3cc4ccccc4[nH]3)cc2c1 [Compound 23] | inactive |  |
|  | CCCCCc1ccc(-c2cc3ccccc3[nH]2)cc1 [Compound 17] | inactive |  |
|  | Cc1ccccc1-c1cc2cc([N+](=O)[O-])ccc2[nH]1 [Compound 25] |  | fold induction at 50 µM [1]: < 1.5 |
| did not show encouraging activity | c1ccc2[nH]c(-c3ccsc3)cc2c1 [Compound 22] | inactive |  |
| did not show significant activity | c1ccc(C2Cc3ccccc3N2)cc1 (stereo not shown) [Compound 1f, 2-phenylindoline] | weak activity |  |

| Compound | Anti-aromatase activity (in words) (aromatase) | QR1 induction activity (in words) [1] | further results |
| --- | --- | --- | --- |
| c1ccc(-c2nc3ccccc3[nH]2)cc1 [Compound 34, 2-phenylbenzimidazole, reference compound] | not active |  |  |
